Laboratory results published in US20200197354A1, “METHODS, COMPOSITIONS AND CONTAINERS FOR REDUCING SOLID FORM QUERCETIN DEGRADATION AND 2,4,6-TRIHYDROXYBENZOIC ACID TOXIC BYPRODUCT THEREOF” (PUBLIC JOINT STOCK COMPANY "SCIENTIFICINDUSTRIALCENTRE …, priority 2018, published 2020).
Converted amounts (≈) assume the structure as drawn.

Experiments:
Daphnia magna [1] = conditions: cited from earlier work
[2] = tested on: Pseudokirchneriella subcapitata; conditions: cited from earlier work
[3] = human oral exposure; cited from earlier work
[4] = humans, cited from earlier work
CDK2 = CDK2 (Homo sapiens, UniProt P24941); conditions: cited from earlier work
[5] = human
From the text: Potential human toxicity of 2,4,6-THBA can be related to its toxicity based on studies with Daphnia.

CDK1 = CDK1 (Homo sapiens, UniProt P06493); conditions: cited from earlier work
HCT-116 human cells = conditions: cited from earlier work
[6] = tested on: Pseudokirchneriella subcapitata; conditions: 48 h
Method: Toxicity is determined using green algae Pseudokirchneriella subcapitata growth rate assay as described (Lee and Chen, 2009). Algal inoculum are withdrawn from the chemostat operated under a steady state, and transferred into 300 mL BOD bottles, together with dilution water (with growth medium) and toxicants. The BOD bottles are filled completely, leaving no headspace. A water seal is provided to ensure a closed test environment. The bottles are then placed on an orbital shaker operated at 100 rpm. Temperature and light intensity are kept at 24±1©° C. and 65 microEm−2 s−1 (±10%), respectively. US EPA bottle medium, with no EDTA content is used for toxicity testing. A sample of lyophilized quercetin (10%)/PVP (90%) is resuspended in solution. Two response endpoints are used to evaluate the toxicity of the resuspended quercetin; the final yield and algal growth rate based on cell density counts. […] The initial inoculated cell density is 15,000 cells/mL and the duration of the test is 48 h.

CDK6 = CDK6 (Homo sapiens, UniProt Q00534); conditions: cited from earlier work
Daphnia magna [7] = conditions: in vivo, 48 h
Method: Toxicity is determined using a Daphnia magna mobility assay as described (Kamaya et al., 2005). Neonates (<24 h old) from 2-3-week-old mothers are placed in a 50 ml glass beaker containing 40 ml of a test solution. All experiments for exposure and controls without chemicals are made in four replicates and performed at 21±0.3° C. under 16 h light: 8 h dark photoperiod. Immobility is used as the endpoint for determining acute toxicity; the daphnids showing no movement within 15 s after gentle stirring are defined to be immobile. After 24 and 48 h, the number of immobile daphnids is recorded to determine the concentration able to achieve 50% immobilization and it is indicated as EC50. The EC50 values are calculated by Probit analyses (USEPA, 1993), based on nominal concentrations and compared to similar experiments using benzoic acid and 2,4,6-THBA.

CDK4 = CDK4 (Homo sapiens, UniProt P11802); conditions: cited from earlier work
CDK4, sequence (P11802 whole entry): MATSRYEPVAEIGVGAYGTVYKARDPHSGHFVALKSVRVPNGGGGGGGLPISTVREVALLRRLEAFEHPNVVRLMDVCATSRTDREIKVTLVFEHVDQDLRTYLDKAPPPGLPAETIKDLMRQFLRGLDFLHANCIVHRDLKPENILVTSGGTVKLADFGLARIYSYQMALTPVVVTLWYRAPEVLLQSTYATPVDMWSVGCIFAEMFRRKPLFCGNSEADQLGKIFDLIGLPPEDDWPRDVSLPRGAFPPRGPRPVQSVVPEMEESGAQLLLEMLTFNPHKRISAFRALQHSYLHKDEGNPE
CDK4, sequence (P24385 whole entry partner): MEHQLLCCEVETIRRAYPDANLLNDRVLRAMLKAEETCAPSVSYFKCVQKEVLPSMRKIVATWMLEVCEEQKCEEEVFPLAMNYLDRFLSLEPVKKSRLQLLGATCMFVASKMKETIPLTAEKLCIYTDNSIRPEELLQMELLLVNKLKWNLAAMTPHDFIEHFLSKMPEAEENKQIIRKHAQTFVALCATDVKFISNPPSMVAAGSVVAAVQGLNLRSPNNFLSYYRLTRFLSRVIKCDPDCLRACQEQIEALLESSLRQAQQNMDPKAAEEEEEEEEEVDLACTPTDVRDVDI

CDK1, sequence (P06493 whole entry, species assumed): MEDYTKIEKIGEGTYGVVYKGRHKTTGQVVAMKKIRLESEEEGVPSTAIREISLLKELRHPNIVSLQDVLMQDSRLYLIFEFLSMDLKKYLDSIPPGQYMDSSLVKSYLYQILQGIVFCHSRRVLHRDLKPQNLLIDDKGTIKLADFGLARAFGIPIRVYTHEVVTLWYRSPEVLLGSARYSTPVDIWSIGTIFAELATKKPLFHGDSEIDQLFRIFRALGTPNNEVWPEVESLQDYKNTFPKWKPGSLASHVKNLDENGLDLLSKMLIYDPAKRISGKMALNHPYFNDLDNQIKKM
CDK1, sequence (P14635 whole entry partner, species assumed): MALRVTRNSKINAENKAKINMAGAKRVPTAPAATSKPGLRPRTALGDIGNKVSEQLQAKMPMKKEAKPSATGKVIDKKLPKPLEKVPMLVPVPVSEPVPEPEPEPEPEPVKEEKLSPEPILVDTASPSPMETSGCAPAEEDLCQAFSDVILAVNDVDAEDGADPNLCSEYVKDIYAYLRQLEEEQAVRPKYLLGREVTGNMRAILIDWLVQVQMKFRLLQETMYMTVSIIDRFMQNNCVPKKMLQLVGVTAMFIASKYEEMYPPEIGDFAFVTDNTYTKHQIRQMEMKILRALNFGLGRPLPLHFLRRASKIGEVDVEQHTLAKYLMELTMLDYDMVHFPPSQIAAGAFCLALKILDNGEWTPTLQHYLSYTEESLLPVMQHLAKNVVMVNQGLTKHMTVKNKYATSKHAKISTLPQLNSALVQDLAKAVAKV
CDK6, sequence (Q00534 whole entry): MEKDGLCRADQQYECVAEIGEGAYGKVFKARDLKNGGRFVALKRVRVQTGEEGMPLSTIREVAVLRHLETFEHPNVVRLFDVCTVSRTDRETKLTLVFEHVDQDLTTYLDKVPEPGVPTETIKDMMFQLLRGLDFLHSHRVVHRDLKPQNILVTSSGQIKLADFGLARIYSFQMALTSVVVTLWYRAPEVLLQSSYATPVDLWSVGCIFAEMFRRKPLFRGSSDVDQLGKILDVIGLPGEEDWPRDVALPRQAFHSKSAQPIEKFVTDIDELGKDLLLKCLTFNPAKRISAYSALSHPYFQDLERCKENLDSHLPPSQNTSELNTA
CDK6, sequence (P24385 whole entry partner): as the sequence (P24385 whole entry partner) above

Compound	EC50 at 48 h, mobility assay (Daphnia magna [1]) [µg/mL]	EC50, suppression of growth [2] [µg/mL]	RfD / toxicity in humans [3]	elimination half-life ([4]; after ingestion in foods or supplements) [h]	bioavailability of quercetin [4]	inhibitory effect on CDK2 (CDK2)	RfD estimated from Daphnia EC50 [5] [mg/kg/day]	RfD-based toxicity relative to benzoic acid [5]	RfD-based toxicity relative to quercetin [5] [times]	inhibitory effect on CDK1 (CDK1)	cytotoxicity compared to other salicylic acid metabolites (HCT-116 human cells)	toxicity relative to benzoic acid and its other derivatives [6] [times]	LC50 in 48 h, immobilization test (Daphnia magna [1]) [µg/mL]	inhibitory effect on CDK6 (CDK6)	toxicity relative to benzoic acid (Daphnia magna [7])	inhibitory effect on CDK4 (CDK4)
O=C(O)c1ccccc1 [benzoic acid]	860 (≈ 7040 µM)	36	1 mg/kg/day													
O=c1c(O)c(-c2ccc(O)c(O)c2)oc2cc(O)cc(O)c12 [quercetin, 2-(3,4-dihydroxyphenyl)-3,5,7-trihydroxy-4H-chromen-4-one]			more than 15 mg/kg/day	1 to 2	0-50%											
O=C(O)c1c(O)cc(O)cc1O [2,4,6-THBA, 2,4,6-trihydroxybenzoic acid]	1.7 (≈ 9.99 µM)	0.546				strong inhibitory effect	0.02	more than 50 times	700	strong inhibitory effect	more cytotoxic	70	1.7 (≈ 9.99 µM)	strong inhibitory effect	about 500 times	strong inhibitory effect
